Measured values reported in patent US9540377B2, “2,6,7,8 substituted purines as HDM2 inhibitors” (Merck Sharp & Dohme Corp., priority 2013, dated 2017).

Biological target: HDM2 (truncated, residues 17 to 125, containing p53 binding surface) (Homo sapiens (Human), UniProt Q00987)
Assay: HDM2 FRET assay (inhibition of binding of FITC labeled p53-site peptide to HDM2)
Source text: IC50 DETERMINATIONS: Dose-response curves were plotted from the inhibition data, from 10 point serial dilutions of inhibitory compounds. Concentration of compound was plotted against em520/Cem495 ratio signal. To generate IC50 values, the dose-response curves were fitted to a standard sigmoidal curve and IC50 values were derived by nonlinear regression analysis.

HDM2 (truncated, residues 17 to 125, containing p53 binding surface), sequence (Q00987 17-125): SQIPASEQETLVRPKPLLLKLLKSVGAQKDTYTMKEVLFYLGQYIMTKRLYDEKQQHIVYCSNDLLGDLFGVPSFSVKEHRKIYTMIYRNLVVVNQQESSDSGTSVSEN

## C[C@H]1CC[C@H](Cn2c(N3CCCC4COCCC43)nc3nc(-c4n[nH]c(=O)o4)nc(-c4cccc(Cl)c4)c32)CC1 (single isomer, unassigned) [Example 16.124, 5-{6-(3-chlorophenyl)-8-(hexahydro-2H-pyrano[4,3-b]pyridin-1(5H)-yl)-7-[(trans-4-methylcyclohexyl)methyl]-7H-purin-2-yl}-1,3,4-oxadiazol-2(3H)-one]
Table 16
  IC50: 263 nM

## C[C@H]1CC[C@H](Cn2c(N3CCCC4COCCC43)nc3nc(-c4n[nH]c(=O)o4)nc(-c4cccc(Cl)c4)c32)CC1 (single isomer, unassigned) [Example 16.125, 5-{6-(3-chlorophenyl)-8-(hexahydro-2H-pyrano[4,3-b]pyridin-1(5H)-yl)-7-[(trans-4-methylcyclohexyl)methyl]-7H-purin-2-yl}-1,3,4-oxadiazol-2(3H)-one]
Table 16
  IC50: 56.7 nM

## CC([C@H]1CC[C@H](C)CC1)n1c(N2CCOC3CCCC32)nc2nc(-c3noc(=O)[nH]3)nc(-c3cccc(Cl)c3)c21 (single isomer, unassigned) [Example 18.37, 3-{6-(3-chlorophenyl)-8-(hexahydrocyclopenta[b][1,4]oxazin-4(4aH)-yl)-7-[1-(trans-4-methylcyclohexyl)ethyl]-7H-purin-2-yl}-1,2,4-oxadiazol-5(4H)-one]
Table 18
  IC50: 2.21 nM

## CC([C@H]1CC[C@H](C)CC1)n1c(N2CCOC3CCCC32)nc2nc(-c3n[nH]c(=O)o3)nc(-c3cccc(Cl)c3)c21 (single isomer, unassigned) [Example 18.39, 5-{6-(3-chlorophenyl)-8-(hexahydrocyclopenta[b][1,4]oxazin-4(4aH)-yl)-7-[1-(trans-4-methylcyclohexyl)ethyl]-7H-purin-2-yl}-1,3,4-oxadiazol-2(3H)-one]
Table 18
  IC50: 3.73 nM

## CC([C@H]1CC[C@H](C)CC1)n1c(N2CCOC3CCCC32)nc2nc(-c3noc(=O)[nH]3)nc(-c3cccc(Cl)c3)c21 (single isomer, unassigned) [Example 18.40, 3-{6-(3-chlorophenyl)-8-(hexahydrocyclopenta[b][1,4]oxazin-4(4aH)-yl)-7-[1-(trans-4-methylcyclohexyl)ethyl]-7H-purin-2-yl}-1,2,4-oxadiazol-5(4H)-one]
Table 18
  IC50: 7.86 nM

## CC([C@H]1CC[C@H](C)CC1)n1c(N2CCOC3CCCC32)nc2nc(-c3n[nH]c(=O)o3)nc(-c3cccc(Cl)c3)c21 (single isomer, unassigned) [Example 18.43, 5-{6-(3-chlorophenyl)-8-(hexahydrocyclopenta[b][1,4]oxazin-4(4aH)-yl)-7-[1-(trans-4-methylcyclohexyl)ethyl]-7H-purin-2-yl}-1,3,4-oxadiazol-2(3H)-one]
Table 18
  IC50: 14 nM

## CC([C@H]1CC[C@H](C)CC1)n1c(N2CCOC3CCCC32)nc2nc(-c3noc(=O)[nH]3)nc(-c3cncc(Cl)c3)c21 (single isomer, unassigned) [Example 18.52, 3-{6-(5-chloropyridin-3-yl)-8-(hexahydrocyclopenta[b][1,4]oxazin-4(4aH)-yl)-7-[1-(trans-4-methylcyclohexyl)ethyl]-7H-purin-2-yl}-1,2,4-oxadiazol-5(4H)-one]
Table 18
  IC50: 5.44 nM

## CC([C@H]1CC[C@H](C)CC1)n1c(N2CCOC3CCCC32)nc2nc(-c3noc(=O)[nH]3)nc(-c3cncc(Cl)c3)c21 (single isomer, unassigned) [Example 18.53, 3-{6-(5-chloropyridin-3-yl)-8-(hexahydrocyclopenta[b][1,4]oxazin-4(4aH)-yl)-7-[1-(trans-4-methylcyclohexyl)ethyl]-7H-purin-2-yl}-1,2,4-oxadiazol-5(4H)-one]
Table 18
  IC50: 7.36 nM

## COc1ccccc1C(C)(F)c1nc2nc(-c3noc(=O)[nH]3)nc(-c3cncc(Cl)c3)c2n1C[C@H]1CC[C@H](C)CC1 (single isomer, unassigned) [Example 23.26, 3-{6-(5-chloropyridin-3-yl)-8-[1-fluoro-1-(2-methoxyphenyl)ethyl]-7-[(trans-4-methylcyclohexyl)methyl]-7H-purin-2-yl}-1,2,4-oxadiazol-5(4H)-one]
Table 23
  IC50: 5.37 nM

## COc1ccccc1C(C)(F)c1nc2nc(-c3noc(=O)[nH]3)nc(-c3cncc(Cl)c3)c2n1C[C@H]1CC[C@H](C)CC1 (single isomer, unassigned) [Example 23.27, 3-{6-(5-chloropyridin-3-yl)-8-[1-fluoro-1-(2-methoxyphenyl)ethyl]-7-[(trans-4-methylcyclohexyl)methyl]-7H-purin-2-yl}-1,2,4-oxadiazol-5(4H)-one]
Table 23
  IC50: 1.62 nM

## CC(F)(c1ccccn1)c1nc2nc(-c3noc(=O)[nH]3)nc(-c3cccc(Cl)c3)c2n1C[C@H]1CC[C@H](C)CC1 (single isomer, unassigned) [Example 23.30, 3-{6-(3-chlorophenyl)-8-(1-fluoro-1-pyridin-2-ylethyl)-7-[(trans-4-methylcyclohexyl)methyl]-7H-purin-2-yl}-1,2,4-oxadiazol-5(4H)-one]
Table 23
  IC50: 6.7 nM

## CC(F)(c1ccccn1)c1nc2nc(-c3noc(=O)[nH]3)nc(-c3cccc(Cl)c3)c2n1C[C@H]1CC[C@H](C)CC1 (single isomer, unassigned) [Example 23.31, 3-{6-(3-chlorophenyl)-8-(1-fluoro-1-pyridin-2-ylethyl)-7-[(trans-4-methylcyclohexyl)methyl]-7H-purin-2-yl}-1,2,4-oxadiazol-5(4H)-one]
Table 23
  IC50: 3.73 nM

## CC(F)(c1ccccc1F)c1nc2nc(-c3n[nH]c(=O)o3)nc(-c3cncc(Cl)c3)c2n1C[C@H]1CC[C@H](C)CC1 (single isomer, unassigned) [Example 23.32, 5-{6-(5-chloropyridin-3-yl)-8-[1-fluoro-1-(2-fluorophenyl)ethyl]-7-[(trans-4-methylcyclohexyl)methyl]-7H-purin-2-yl}-1,3,4-oxadiazol-2(3H)-one]
Table 23
  IC50: 16 nM

## CC(F)(c1ccccc1F)c1nc2nc(-c3n[nH]c(=O)o3)nc(-c3cncc(Cl)c3)c2n1C[C@H]1CC[C@H](C)CC1 (single isomer, unassigned) [Example 23.33, 5-{6-(5-chloropyridin-3-yl)-8-[1-fluoro-1-(2-fluorophenyl)ethyl]-7-[{trans-4-methylcyclohexyl)methyl]-7H-purin-2-yl}-1,3,4-oxadiazol-2(3H)-one]
Table 23
  IC50: 0.453 nM

## CC(F)(c1ccccc1F)c1nc2nc(-c3noc(=O)[nH]3)nc(-c3cncc(Cl)c3)c2n1C[C@H]1CC[C@H](C)CC1 (single isomer, unassigned) [Example 23.34, 3-{6-(5-chloropyridin-3-yl)-8-[1-fluoro-1-(2-fluorophenyl)ethyl]-7-[(trans-4-methylcyclohexyl)methyl]-7H-purin-2-yl}-1,2,4-oxadiazol-5(4H)-one]
Table 23
  IC50: 9.3 nM

## CC(F)(c1ccccc1F)c1nc2nc(-c3noc(=O)[nH]3)nc(-c3cncc(Cl)c3)c2n1C[C@H]1CC[C@H](C)CC1 (single isomer, unassigned) [Example 23.35, 3-{6-(5-chloropyridin-3-yl)-8-[1-fluoro-1-(2-fluorophenyl)ethyl]-7-[(trans-4-methylcyclohexyl)methyl] 7H-purin-2-yl}-1,2,4-oxadiazol-5(4H)-one]
Table 23
  IC50: 0.424 nM

## CC(F)(c1ccccn1)c1nc2nc(-c3n[nH]c(=O)o3)nc(-c3cccc(Cl)c3)c2n1C[C@H]1CC[C@H](C)CC1 (single isomer, unassigned) [Example 23.36, 5-{6-(3-chlorophenyl)-8-[1-fluoro-1-(pyridin-2-yl)ethyl]-7-[(trans-4-methylcyclohexyl)methyl]-7H-purin-2-yl}-1,3,4-oxadiazol-2(3H)-one]
Table 23
  IC50: 9.68 nM

## CC(F)(c1ccccn1)c1nc2nc(-c3n[nH]c(=O)o3)nc(-c3cccc(Cl)c3)c2n1C[C@H]1CC[C@H](C)CC1 (single isomer, unassigned) [Example 23.37, 5-{6-(3-chlorophenyl)-8-[1-fluoro-1-(pyridin-2-yl)ethyl]-7-[{trans-4-methylcyclohexyl)methyl]-7H-purin-2-yl}-1,3,4-oxadiazol-2(3H)-one]
Table 23
  IC50: 9.65 nM

## COC(C)(c1ccccc1F)c1nc2nc(-c3noc(=O)[nH]3)nc(-c3cncc(Cl)c3)c2n1C[C@H]1CC[C@H](C)CC1 (single isomer, unassigned) [Example 23.50, 3-{6-(5-chloropyridin-3-yl)-8-[1-(2-fluorophenyl)-1-methoxyethyl]-7-[(trans-4-methylcyclohexyl)methyl]-7H-purin-2-yl}-1,2,4-oxadiazol-5(4H)-one]
Table 23
  IC50: 6.55 nM

## COC(C)(c1ccccn1)c1nc2nc(-c3n[nH]c(=O)o3)nc(-c3cccc(Cl)c3)c2n1C[C@H]1CC[C@H](C)CC1 (single isomer, unassigned) [Example 23.54, 5-{6-(3-chlorophenyl)-8-(1-methoxy-1-pyridin-2-ylethyl)-7-[(trans-4-methylcyclohexyl)methyl]-7H-purin-2-yl}-1,3,4-oxadiazol-2(3H)-one]
Table 23
  IC50: 13.6 nM

## COC(C)(c1ccccn1)c1nc2nc(-c3n[nH]c(=O)o3)nc(-c3cccc(Cl)c3)c2n1C[C@H]1CC[C@H](C)CC1 (single isomer, unassigned) [Example 23.55, 5-{6-(3-chlorophenyl)-8-(1-methoxy-1-pyridin-2-ylethyl)-7-[(trans-4-methylcyclohexyl)methyl]-7H-purin-2-yl}-1,3,4-oxadiazol-2(3H)-one]
Table 23
  IC50: 4.26 nM

## CC(F)(c1c(F)cccc1F)c1nc2nc(-c3noc(=O)[nH]3)nc(-c3cncc(Cl)c3)c2n1C[C@H]1CC[C@H](C)CC1 (single isomer, unassigned) [Example 23.68, 3-{6-(5-chloropyridin-3-yl)-8-[1-(2,6-difluorophenyl)-1-fluoroethyl]-7-[(trans-4-methylcyclohexyl)methyl]-7H-purin-2-yl}-1,2,4-oxadiazol-5(4H)-one]
Table 23
  IC50: 4.26 nM

## CC(F)(c1c(F)cccc1F)c1nc2nc(-c3noc(=O)[nH]3)nc(-c3cncc(Cl)c3)c2n1C[C@H]1CC[C@H](C)CC1 (single isomer, unassigned) [Example 23.69, 3-{6-(5-chloropyridin-3-yl)-8-[1-(2,6-difluorophenyl)-1-fluoroethyl]-7-[(trans-4-methylcyclohexyl)methyl]-7H-purin-2-yl}-1,2,4-oxadiazol-5(4H)-one]
Table 23
  IC50: 0.156 nM
